# Test results from ChEMBL document CHEMBL5696442, “Discovery of type II inhibitors of TGFβ-activated kinase 1 (TAK1) and mitogen-activated protein kinase kinase kinase kinase 2 (MAP4K2)” (J Med Chem, 2015).
# Calls of active or inactive are those of the source. No cut-off for these calls is given here.
# Tests used:
# [1] = target: MAP/microtubule affinity-regulating kinase 4 (Homo sapiens) (UniProt Q96L34); test: Inhibition of MARK4 (unknown origin) at 1 uM by Ambit Kinomescan binding assay relative to control
# [2] = target: Tyrosine-protein kinase receptor Tie-1 (Homo sapiens) (UniProt P35590); test: Inhibition of TIE1 (unknown origin) at 1 uM by Ambit Kinomescan binding assay relative to control
# [3] = target: Serine/threonine-protein kinase B-raf (Homo sapiens, UniProt P15056); test: Inhibition of BRAF Lys2 labeling site in human A-375 cells at 0.5 uM by KiNativ Profiling analysis relative to control; format: cell-based
# [4] = target: Ephrin type-A receptor 7 (Homo sapiens) (UniProt Q15375); test: Inhibition of EPHA7 (unknown origin) at 1 uM by Ambit Kinomescan binding assay relative to control
# [5] = target: c-Jun N-terminal kinase, JNK (Homo sapiens) (UniProt P45983+P53779+P45984); test: Inhibition of JNK1/2/3 K2 labeling site in human Huh-7 cells at 10 uM by KiNativ Profiling analysis relative to control; format: cell-based
# [6] = target: T1, Phosphatidylinositol 5-phosphate 4-kinase type-2 gamma (Homo sapiens) (UniProt Q8TBX8); test: Inhibition of PIP4K2C ATP labeling site harbouring TLVIKEVSSEDIADMHSNLSNYHQYIVK in human A-375 cells at 0.05 uM by KiNativ Profiling analysis relative to control; format: cell-based
# T1 sequence (whole entry): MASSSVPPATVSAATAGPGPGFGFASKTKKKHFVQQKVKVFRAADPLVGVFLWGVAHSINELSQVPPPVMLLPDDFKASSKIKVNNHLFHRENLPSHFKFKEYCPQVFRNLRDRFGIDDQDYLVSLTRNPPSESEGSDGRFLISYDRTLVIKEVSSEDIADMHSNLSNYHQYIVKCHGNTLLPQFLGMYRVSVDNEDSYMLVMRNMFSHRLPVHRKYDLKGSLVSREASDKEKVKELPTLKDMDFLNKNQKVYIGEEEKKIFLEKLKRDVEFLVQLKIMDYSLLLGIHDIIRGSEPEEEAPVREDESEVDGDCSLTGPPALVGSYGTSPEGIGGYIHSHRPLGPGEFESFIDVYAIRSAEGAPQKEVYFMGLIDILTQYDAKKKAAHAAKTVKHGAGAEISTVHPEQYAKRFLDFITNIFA
# [7] = target: Serine/threonine-protein kinase Chk2 (Homo sapiens) (UniProt O96017); test: Inhibition of CHEK2 (unknown origin) at 10 uM by Ambit Kinomescan binding assay
# [8] = target: Casein kinase II subunit alpha (Homo sapiens) (UniProt P68400); test: Inhibition of CK2a1 in human Huh-7 cells at 10 uM by KiNativ Profiling analysis relative to control; format: cell-based
# [9] = target: T2, Serine/threonine-protein kinase D2 (Homo sapiens) (UniProt Q9BZL6); test: Inhibition of PKD2 Lys2 labeling site in human Huh-7 cells at 1 uM by KiNativ Profiling analysis relative to control; format: cell-based
# T2 sequence (whole entry): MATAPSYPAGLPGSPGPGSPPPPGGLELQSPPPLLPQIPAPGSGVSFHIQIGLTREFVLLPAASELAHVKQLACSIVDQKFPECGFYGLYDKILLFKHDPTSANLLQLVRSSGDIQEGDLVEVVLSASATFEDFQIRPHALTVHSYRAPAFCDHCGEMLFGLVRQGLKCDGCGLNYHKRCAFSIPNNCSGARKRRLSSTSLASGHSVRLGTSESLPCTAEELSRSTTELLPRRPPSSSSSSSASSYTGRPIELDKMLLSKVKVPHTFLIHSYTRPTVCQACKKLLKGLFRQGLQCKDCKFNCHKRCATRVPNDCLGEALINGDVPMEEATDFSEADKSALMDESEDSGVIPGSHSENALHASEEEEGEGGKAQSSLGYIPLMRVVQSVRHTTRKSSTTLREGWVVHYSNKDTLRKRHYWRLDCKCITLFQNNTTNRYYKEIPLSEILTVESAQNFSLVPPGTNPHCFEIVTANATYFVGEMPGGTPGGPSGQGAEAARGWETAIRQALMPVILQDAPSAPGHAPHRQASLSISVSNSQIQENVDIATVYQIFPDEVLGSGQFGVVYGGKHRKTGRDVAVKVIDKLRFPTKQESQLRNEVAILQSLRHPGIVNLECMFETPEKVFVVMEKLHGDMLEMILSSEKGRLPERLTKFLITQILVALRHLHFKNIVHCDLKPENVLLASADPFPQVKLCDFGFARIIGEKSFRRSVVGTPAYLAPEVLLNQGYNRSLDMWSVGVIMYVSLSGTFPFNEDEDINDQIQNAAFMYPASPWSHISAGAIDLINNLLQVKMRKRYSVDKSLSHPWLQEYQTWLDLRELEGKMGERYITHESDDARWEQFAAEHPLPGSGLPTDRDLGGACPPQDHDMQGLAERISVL
# [10] = target: T3, Serine/threonine-protein kinase 3 (Homo sapiens) (UniProt Q13188); test: Inhibition of MST2 Lys2 labeling site harbouring IHRDIKAGNILLNTEGHAK in human Huh-7 cell lysate at 1 uM by KiNativ Profiling analysis relative to control; format: subcellular
# T3 sequence (whole entry): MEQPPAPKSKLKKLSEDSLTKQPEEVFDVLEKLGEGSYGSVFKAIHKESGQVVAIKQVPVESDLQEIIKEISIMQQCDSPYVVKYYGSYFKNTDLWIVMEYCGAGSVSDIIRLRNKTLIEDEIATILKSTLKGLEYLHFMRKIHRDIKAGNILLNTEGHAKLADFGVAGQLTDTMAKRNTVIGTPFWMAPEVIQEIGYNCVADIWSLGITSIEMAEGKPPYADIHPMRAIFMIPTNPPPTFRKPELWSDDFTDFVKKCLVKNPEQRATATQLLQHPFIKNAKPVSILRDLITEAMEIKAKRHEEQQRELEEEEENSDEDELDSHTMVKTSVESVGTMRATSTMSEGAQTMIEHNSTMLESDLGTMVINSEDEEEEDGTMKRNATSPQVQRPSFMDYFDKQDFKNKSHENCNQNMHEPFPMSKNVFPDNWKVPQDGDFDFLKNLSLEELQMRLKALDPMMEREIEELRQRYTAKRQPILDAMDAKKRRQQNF
# Ephrin type-A receptor 7 (Homo sapiens), sequence (Q15375 28-998 limits assumed): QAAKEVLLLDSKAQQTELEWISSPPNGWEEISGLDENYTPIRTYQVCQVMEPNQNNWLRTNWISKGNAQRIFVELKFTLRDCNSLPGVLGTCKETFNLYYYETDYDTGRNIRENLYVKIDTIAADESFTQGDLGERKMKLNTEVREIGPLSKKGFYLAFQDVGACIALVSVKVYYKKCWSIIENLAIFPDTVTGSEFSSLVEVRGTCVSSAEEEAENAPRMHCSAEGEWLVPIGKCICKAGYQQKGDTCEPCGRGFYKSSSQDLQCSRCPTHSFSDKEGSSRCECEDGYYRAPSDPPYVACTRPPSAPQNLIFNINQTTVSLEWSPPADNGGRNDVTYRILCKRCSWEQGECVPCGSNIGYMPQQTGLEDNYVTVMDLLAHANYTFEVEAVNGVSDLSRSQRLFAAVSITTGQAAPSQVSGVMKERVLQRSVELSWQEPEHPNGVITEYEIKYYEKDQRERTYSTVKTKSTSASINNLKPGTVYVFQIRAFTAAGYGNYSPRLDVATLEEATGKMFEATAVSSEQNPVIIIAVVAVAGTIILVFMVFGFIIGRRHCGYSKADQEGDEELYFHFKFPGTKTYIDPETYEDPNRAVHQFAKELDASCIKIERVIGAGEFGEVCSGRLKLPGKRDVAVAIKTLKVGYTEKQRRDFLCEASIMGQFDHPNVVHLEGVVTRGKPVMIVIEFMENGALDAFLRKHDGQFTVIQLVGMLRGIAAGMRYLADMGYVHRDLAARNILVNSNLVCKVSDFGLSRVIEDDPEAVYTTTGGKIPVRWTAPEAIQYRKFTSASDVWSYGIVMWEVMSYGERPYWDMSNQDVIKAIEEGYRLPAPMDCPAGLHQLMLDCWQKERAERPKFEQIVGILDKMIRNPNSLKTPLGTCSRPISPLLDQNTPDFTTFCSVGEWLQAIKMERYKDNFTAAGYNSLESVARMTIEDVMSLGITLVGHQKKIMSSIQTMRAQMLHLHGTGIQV
# Casein kinase II subunit alpha (Homo sapiens), sequence (P68400 whole entry, looked up): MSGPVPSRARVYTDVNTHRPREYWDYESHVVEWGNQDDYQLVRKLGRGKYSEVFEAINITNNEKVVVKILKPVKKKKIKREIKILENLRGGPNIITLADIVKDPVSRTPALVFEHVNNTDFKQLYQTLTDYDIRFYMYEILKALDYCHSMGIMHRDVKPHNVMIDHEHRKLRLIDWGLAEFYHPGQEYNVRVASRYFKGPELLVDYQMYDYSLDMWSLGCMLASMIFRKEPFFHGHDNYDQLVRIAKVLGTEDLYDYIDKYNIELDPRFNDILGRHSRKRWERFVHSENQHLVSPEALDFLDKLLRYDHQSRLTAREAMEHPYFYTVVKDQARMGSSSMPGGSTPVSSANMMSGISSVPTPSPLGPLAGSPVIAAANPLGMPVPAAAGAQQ
# Serine/threonine-protein kinase Chk2 (Homo sapiens), sequence (O96017 whole entry): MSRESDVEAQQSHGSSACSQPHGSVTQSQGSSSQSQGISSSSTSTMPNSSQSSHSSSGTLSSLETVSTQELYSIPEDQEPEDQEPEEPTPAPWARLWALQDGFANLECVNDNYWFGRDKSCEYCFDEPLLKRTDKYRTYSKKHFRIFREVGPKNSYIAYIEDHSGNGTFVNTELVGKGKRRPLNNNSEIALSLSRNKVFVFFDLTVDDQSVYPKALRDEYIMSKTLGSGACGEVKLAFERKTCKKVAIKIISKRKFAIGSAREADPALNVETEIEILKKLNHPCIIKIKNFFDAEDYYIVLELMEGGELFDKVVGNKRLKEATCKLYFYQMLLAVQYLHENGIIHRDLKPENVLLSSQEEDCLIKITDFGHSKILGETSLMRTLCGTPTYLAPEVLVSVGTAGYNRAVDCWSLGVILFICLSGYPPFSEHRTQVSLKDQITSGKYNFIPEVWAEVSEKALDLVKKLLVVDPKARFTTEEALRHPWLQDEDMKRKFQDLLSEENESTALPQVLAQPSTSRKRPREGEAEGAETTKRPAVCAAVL
# MAP/microtubule affinity-regulating kinase 4 (Homo sapiens), sequence (Q96L34 whole entry): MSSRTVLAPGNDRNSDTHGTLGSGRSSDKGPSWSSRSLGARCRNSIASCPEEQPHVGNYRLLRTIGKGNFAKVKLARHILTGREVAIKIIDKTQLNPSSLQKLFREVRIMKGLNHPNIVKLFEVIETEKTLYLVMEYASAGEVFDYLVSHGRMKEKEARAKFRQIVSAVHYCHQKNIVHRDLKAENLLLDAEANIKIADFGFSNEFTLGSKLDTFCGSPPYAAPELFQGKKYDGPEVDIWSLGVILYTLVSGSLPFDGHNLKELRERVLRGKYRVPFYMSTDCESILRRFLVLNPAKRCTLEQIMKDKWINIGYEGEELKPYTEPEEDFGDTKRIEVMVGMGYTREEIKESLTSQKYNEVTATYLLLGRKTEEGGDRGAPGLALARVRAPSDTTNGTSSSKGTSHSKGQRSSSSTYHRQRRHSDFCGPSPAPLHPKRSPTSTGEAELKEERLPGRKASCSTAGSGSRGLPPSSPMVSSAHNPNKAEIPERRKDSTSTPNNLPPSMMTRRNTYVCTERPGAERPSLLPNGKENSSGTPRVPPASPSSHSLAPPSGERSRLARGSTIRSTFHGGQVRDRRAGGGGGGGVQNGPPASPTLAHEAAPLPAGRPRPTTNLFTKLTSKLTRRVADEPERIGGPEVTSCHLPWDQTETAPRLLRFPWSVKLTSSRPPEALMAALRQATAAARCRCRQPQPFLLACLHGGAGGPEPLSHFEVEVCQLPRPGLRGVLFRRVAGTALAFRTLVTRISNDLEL
# Tyrosine-protein kinase receptor Tie-1 (Homo sapiens), sequence (P35590 whole entry): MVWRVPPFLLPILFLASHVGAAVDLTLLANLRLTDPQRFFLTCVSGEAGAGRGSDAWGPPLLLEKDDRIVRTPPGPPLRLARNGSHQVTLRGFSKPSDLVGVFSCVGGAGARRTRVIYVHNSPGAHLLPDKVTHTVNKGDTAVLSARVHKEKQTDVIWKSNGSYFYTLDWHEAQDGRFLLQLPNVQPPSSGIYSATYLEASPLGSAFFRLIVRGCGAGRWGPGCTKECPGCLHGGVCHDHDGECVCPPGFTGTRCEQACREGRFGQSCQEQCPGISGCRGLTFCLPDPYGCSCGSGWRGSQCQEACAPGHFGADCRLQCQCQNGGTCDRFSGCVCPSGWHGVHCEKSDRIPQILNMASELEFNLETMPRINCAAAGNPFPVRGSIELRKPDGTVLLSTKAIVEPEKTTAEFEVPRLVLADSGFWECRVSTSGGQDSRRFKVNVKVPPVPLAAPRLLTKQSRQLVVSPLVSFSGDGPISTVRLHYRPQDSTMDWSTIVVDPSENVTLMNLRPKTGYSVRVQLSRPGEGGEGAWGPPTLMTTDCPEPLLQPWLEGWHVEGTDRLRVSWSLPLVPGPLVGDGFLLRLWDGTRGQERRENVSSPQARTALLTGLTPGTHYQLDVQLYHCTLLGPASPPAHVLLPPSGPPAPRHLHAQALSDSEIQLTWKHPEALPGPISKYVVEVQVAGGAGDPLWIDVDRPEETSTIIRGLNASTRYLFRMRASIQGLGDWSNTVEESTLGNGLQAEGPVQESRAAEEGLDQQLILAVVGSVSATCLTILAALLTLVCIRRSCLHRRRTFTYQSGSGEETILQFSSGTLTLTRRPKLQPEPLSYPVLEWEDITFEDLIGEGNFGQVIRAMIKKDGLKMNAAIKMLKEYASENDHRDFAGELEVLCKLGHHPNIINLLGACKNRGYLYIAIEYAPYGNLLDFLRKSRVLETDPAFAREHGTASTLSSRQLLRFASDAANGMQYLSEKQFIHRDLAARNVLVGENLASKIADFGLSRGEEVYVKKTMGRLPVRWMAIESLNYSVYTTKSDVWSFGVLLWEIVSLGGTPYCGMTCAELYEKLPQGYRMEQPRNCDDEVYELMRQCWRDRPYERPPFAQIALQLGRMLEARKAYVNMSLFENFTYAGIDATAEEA
# Serine/threonine-protein kinase B-raf, sequence (P15056 whole entry): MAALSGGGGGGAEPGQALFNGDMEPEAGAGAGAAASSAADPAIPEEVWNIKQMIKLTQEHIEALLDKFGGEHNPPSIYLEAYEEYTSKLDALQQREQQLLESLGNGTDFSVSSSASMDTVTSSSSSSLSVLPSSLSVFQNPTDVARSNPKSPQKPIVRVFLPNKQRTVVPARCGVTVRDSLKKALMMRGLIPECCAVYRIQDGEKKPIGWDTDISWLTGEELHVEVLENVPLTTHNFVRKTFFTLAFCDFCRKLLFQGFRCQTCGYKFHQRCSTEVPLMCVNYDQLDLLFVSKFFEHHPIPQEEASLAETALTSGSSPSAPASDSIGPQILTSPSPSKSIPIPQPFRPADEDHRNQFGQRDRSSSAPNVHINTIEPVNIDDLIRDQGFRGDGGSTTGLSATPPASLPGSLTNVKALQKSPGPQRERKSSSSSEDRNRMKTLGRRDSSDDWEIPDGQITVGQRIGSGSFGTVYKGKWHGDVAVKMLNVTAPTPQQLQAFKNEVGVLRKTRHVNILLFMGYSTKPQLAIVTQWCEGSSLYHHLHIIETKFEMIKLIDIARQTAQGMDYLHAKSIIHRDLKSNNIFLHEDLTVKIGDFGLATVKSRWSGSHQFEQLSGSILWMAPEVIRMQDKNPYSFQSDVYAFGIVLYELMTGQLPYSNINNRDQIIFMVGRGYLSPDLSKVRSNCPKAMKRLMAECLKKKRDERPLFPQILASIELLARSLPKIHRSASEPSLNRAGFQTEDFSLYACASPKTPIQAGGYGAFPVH
compound,measurement,setting,value
CCN1CCN(Cc2ccc(NC(=O)c3ccc(C)c(/C=C/c4cnc5[nH]ccc5c4OC)c3)cc2C(F)(F)F)CC1,inhibition,[1],81%
same,inhibition,[2],0.95%
same,inhibition,[3],58.7%
same,inhibition,[4],78%
CCN1CCN(Cc2ccc(NC(=O)c3ccc(C)c(Oc4ccnc5[nH]ccc45)c3)cc2C(F)(F)F)CC1,inhibition,[5],60.1%
same,inhibition,[6],-1.1%
same,inhibition,[7],inactive
same,inhibition,[8],12.3%
CNc1cc(Oc2cc(C(=O)Nc3cc(N4CCN(C)CC4)cc(C(F)(F)F)c3)ccc2C)ncn1,inhibition,[9],9%
same,inhibition,[10],14.4%
